PubChem BioAssay (NCI)
Several values for one entry are separate records, joined by “and”; a condition that tells them apart may be missing. Equal values may be shown once.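 Dose response: 5 concentrations. Exposure: 48 h. Format: 96-well plates. Endpoint: linear interpolation; highest concentration if not reached. GI50 is the concentration that inhibits growth by half. TGI: total growth inhibition.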

How the values were obtained:
Assay in all cases: NCI-60 cell line screen, 48 h
786-0 renal = tested on: 786-0 renal
A498 renal = tested on: A498 renal
A549 NSCLC = tested on: A549 NSCLC
ACHN renal = tested on: ACHN renal
BT-549 breast = tested on: BT-549 breast
CAKI-1 renal = tested on: CAKI-1 renal
CCRF-CEM leukemia = tested on: CCRF-CEM leukemia
COLO 205 colon = tested on: COLO 205 colon
DU-145 prostate = tested on: DU-145 prostate
EKVX NSCLC = tested on: EKVX NSCLC
HCT-116 colon = tested on: HCT-116 colon
HCT-15 colon = tested on: HCT-15 colon
HL-60(TB) leukemia = tested on: HL-60(TB) leukemia
HOP-62 NSCLC = tested on: HOP-62 NSCLC
HOP-92 NSCLC = tested on: HOP-92 NSCLC
HS 578T breast = tested on: HS 578T breast
HT29 colon = tested on: HT29 colon
IGROV1 ovarian = tested on: IGROV1 ovarian
K-562 leukemia = tested on: K-562 leukemia
KM12 colon = tested on: KM12 colon
LOX IMVI melanoma = tested on: LOX IMVI melanoma
M14 melanoma = tested on: M14 melanoma
MALME-3M melanoma = tested on: MALME-3M melanoma
MCF7 breast = tested on: MCF7 breast
MDA-MB-231 breast = tested on: MDA-MB-231 breast
MDA-MB-435 = tested on: MDA-MB-435
MOLT-4 leukemia = tested on: MOLT-4 leukemia
NCI-H226 lung = tested on: NCI-H226 lung
NCI-H460 lung = tested on: NCI-H460 lung
NCI-H522 lung = tested on: NCI-H522 lung
OVCAR-3 ovarian = tested on: OVCAR-3 ovarian
OVCAR-4 ovarian = tested on: OVCAR-4 ovarian
OVCAR-8 ovarian = tested on: OVCAR-8 ovarian
PC-3 prostate = tested on: PC-3 prostate
RXF 393 renal = tested on: RXF 393 renal
SF-268 CNS = tested on: SF-268 CNS
SF-295 CNS = tested on: SF-295 CNS
SF-539 CNS = tested on: SF-539 CNS
SK-MEL-2 melanoma = tested on: SK-MEL-2 melanoma
SK-MEL-28 melanoma = tested on: SK-MEL-28 melanoma
SK-MEL-5 melanoma = tested on: SK-MEL-5 melanoma
SK-OV-3 ovarian = tested on: SK-OV-3 ovarian
SN12C renal = tested on: SN12C renal
SNB-19 CNS = tested on: SNB-19 CNS
SNB-75 CNS = tested on: SNB-75 CNS
SW-620 colon = tested on: SW-620 colon
T-47D breast = tested on: T-47D breast
TK-10 renal = tested on: TK-10 renal
U251 CNS = tested on: U251 CNS
UACC-257 melanoma = tested on: UACC-257 melanoma
UACC-62 melanoma = tested on: UACC-62 melanoma
UO-31 renal = tested on: UO-31 renal

For CCN(CC)CCCC(CO)Nc1ccnc2cc(Cl)ccc12 (centres undefined), the GI50 (786-0 renal) was 54.9 µM and 42.3 µM, the TGI (786-0 renal) was > 100 µM and the GI50 (A498 renal) was > 100 µM and 32.7 µM. For the same compound, the TGI (A498 renal) was > 100 µM, the GI50 (A549 NSCLC) was 50.9 µM and 73.7 µM and the TGI (A549 NSCLC) was > 100 µM. The GI50 (ACHN renal) was > 100 µM and 54.1 µM, the TGI (ACHN renal) was > 100 µM and the GI50 (BT-549 breast) was 33.8 µM and 30.8 µM. The TGI (BT-549 breast) was > 100 µM, the GI50 (CAKI-1 renal) was 32.7 µM and 30.7 µM and the TGI (CAKI-1 renal) was > 100 µM and 85.5 µM. The GI50 (CCRF-CEM leukemia) was 45.4 µM and 15 µM, the TGI (CCRF-CEM leukemia) was > 100 µM and 39.8 µM and the GI50 (COLO 205 colon) was 39.9 µM and 34.5 µM. The TGI (COLO 205 colon) was > 100 µM, the GI50 (DU-145 prostate) was > 100 µM and the TGI (DU-145 prostate) was > 100 µM. For the same compound, the GI50 (EKVX NSCLC) was 54.5 µM and 74.2 µM, the TGI (EKVX NSCLC) was > 100 µM and the GI50 (HCT-116 colon) was 21.9 µM and 26.3 µM. For the same compound, the TGI (HCT-116 colon) was 73.7 µM and 80.1 µM, the GI50 (HCT-15 colon) was > 100 µM and the TGI (HCT-15 colon) was > 100 µM. The GI50 (HL-60(TB) leukemia) was 24.4 µM and 25 µM, the TGI (HL-60(TB) leukemia) was > 100 µM and the GI50 (HOP-62 NSCLC) was 82.4 µM and 68.2 µM. For the same compound, the TGI (HOP-62 NSCLC) was > 100 µM, the GI50 (HOP-92 NSCLC) was 22.6 µM and 20.5 µM and the TGI (HOP-92 NSCLC) was > 100 µM and 88.5 µM. For the same compound, the GI50 (HS 578T breast) was > 100 µM and 72.5 µM, the TGI (HS 578T breast) was > 100 µM and the GI50 (HT29 colon) was 32.2 µM and 64.3 µM. The TGI (HT29 colon) was > 100 µM, the GI50 (IGROV1 ovarian) was > 100 µM and the TGI (IGROV1 ovarian) was > 100 µM. For the same compound, the GI50 (K-562 leukemia) was 30.4 µM and 36.3 µM, the TGI (K-562 leukemia) was > 100 µM and the GI50 (KM12 colon) was 49.1 µM and 66.8 µM. The TGI (KM12 colon) was > 100 µM, the GI50 (LOX IMVI melanoma) was 30.1 µM and 27.6 µM and the TGI (LOX IMVI melanoma) was 59.6 µM and 51.5 µM. For the same compound, the GI50 (M14 melanoma) was 16.6 µM and 17 µM, the TGI (M14 melanoma) was 30.9 µM and 31.2 µM and the GI50 (MALME-3M melanoma) was 29.4 µM and 26.5 µM. For the same compound, the TGI (MALME-3M melanoma) was 59.1 µM and 49.9 µM, the GI50 (MCF7 breast) was 47.9 µM and 56.1 µM and the TGI (MCF7 breast) was > 100 µM. The GI50 (MDA-MB-231 breast) was 70.3 µM and 57.1 µM, the TGI (MDA-MB-231 breast) was > 100 µM and the GI50 (MDA-MB-435) was 19.5 µM and 20.5 µM. For the same compound, the TGI (MDA-MB-435) was 42.7 µM and 43.2 µM, the GI50 (MOLT-4 leukemia) was 31 µM and 34.3 µM and the TGI (MOLT-4 leukemia) was > 100 µM. The GI50 (NCI-H226 lung) was > 100 µM and 36.5 µM, the TGI (NCI-H226 lung) was > 100 µM and 92.8 µM and the GI50 (NCI-H460 lung) was 66.2 µM and 82.7 µM. For the same compound, the TGI (NCI-H460 lung) was > 100 µM, the GI50 (NCI-H522 lung) was 56.9 µM and > 100 µM and the TGI (NCI-H522 lung) was > 100 µM. The GI50 (OVCAR-3 ovarian) was 28.3 µM and 32.6 µM, the TGI (OVCAR-3 ovarian) was 77.1 µM and > 100 µM and the GI50 (OVCAR-4 ovarian) was > 100 µM and 58.2 µM. The TGI (OVCAR-4 ovarian) was > 100 µM, the GI50 (OVCAR-8 ovarian) was 38.5 µM and 56.1 µM and the TGI (OVCAR-8 ovarian) was > 100 µM. The GI50 (PC-3 prostate) was 66.2 µM and 34.4 µM, the TGI (PC-3 prostate) was > 100 µM and the GI50 (RXF 393 renal) was 35.8 µM and 41.1 µM. The TGI (RXF 393 renal) was > 100 µM, the GI50 (SF-268 CNS) was 64.3 µM and 75.7 µM and the TGI (SF-268 CNS) was > 100 µM. For the same compound, the GI50 (SF-295 CNS) was 18.9 µM and 18 µM, the TGI (SF-295 CNS) was 46.6 µM and 45.3 µM and the GI50 (SF-539 CNS) was 15.9 µM and 17.3 µM. The TGI (SF-539 CNS) was 35.4 µM and 35.3 µM, the GI50 (SK-MEL-2 melanoma) was > 100 µM and 90.2 µM and the TGI (SK-MEL-2 melanoma) was > 100 µM. For the same compound, the GI50 (SK-MEL-28 melanoma) was 25 µM and > 100 µM, the TGI (SK-MEL-28 melanoma) was 57.5 µM and > 100 µM and the GI50 (SK-MEL-5 melanoma) was 20 µM and 18 µM. The TGI (SK-MEL-5 melanoma) was 44.8 µM and 37.6 µM, the GI50 (SK-OV-3 ovarian) was > 100 µM and 91.5 µM and the TGI (SK-OV-3 ovarian) was > 100 µM. For the same compound, the GI50 (SN12C renal) was > 100 µM and 48.5 µM, the TGI (SN12C renal) was > 100 µM and the GI50 (SNB-19 CNS) was > 100 µM. For the same compound, the TGI (SNB-19 CNS) was > 100 µM, the GI50 (SNB-75 CNS) was > 100 µM and the TGI (SNB-75 CNS) was > 100 µM. For the same compound, the GI50 (SW-620 colon) was 50.6 µM and > 100 µM, the TGI (SW-620 colon) was > 100 µM and the GI50 (T-47D breast) was > 100 µM. The TGI (T-47D breast) was > 100 µM, the GI50 (TK-10 renal) was 46 µM and 32.4 µM and the TGI (TK-10 renal) was > 100 µM. For the same compound, the GI50 (U251 CNS) was 67.6 µM and 70.8 µM, the TGI (U251 CNS) was > 100 µM and the GI50 (UACC-257 melanoma) was 18.1 µM and 19.2 µM. The TGI (UACC-257 melanoma) was 33 µM and 35.2 µM, the GI50 (UACC-62 melanoma) was 22.2 µM and 37.7 µM and the TGI (UACC-62 melanoma) was 49.6 µM and > 100 µM. For the same compound, the GI50 (UO-31 renal) was > 100 µM and the TGI (UO-31 renal) was > 100 µM.
